The target of experiment [1] is T1, S1P-1 receptor (Homo sapiens, UniProt P21453).
T1 construct: expressed in transfected cells; host or cells: HEK 293 T cells (crude membranes)
Description: [33P]sphingosine 1-phosphate binding assay, membranes of transfected HEK 293 T cells. To be noted: for IC50: binding, 2.5 pM [33P]S1P, 60 minutes, room temperature; for IC50/IC50 (S1P-3/S1P-1): selectivity for S1P-1 over S1P-3. As for the experimental part:
(§1) The IC50 of a compound is determined using the [^33P]sphingosine 1-phosphate binding assay, as described in Davis, M. D. et al., Sphingosine 1-Phosphate Analogs as Receptor Antagonists. J. Biol. Chem. (2005) 280:9833-9841, the entire contents of which are incorporated herein by this reference.
(§2) The ability of several of the compounds described herein to bind to the S1P-1 or S1P-3 receptor was tested as follows.
(§3) For the membrane preparation, plasmid DNA was transfected into HEK 293 T cells using the FuGENE 6 transfection protocol Briefly, subconfluent monolayers of HEK 293 T cells were transfected with the DNA mixture containing FuGENE 6 (using a 1:3 ratio). The dishes containing the cells were then placed in a tissue culture incubator (5% CO2, 37° C.). The cells were harvested 48 hours after addition of the DNA by scraping in HME buffer (in mM: 20 HEPES, 5 MgCl2, 1 EDTA, pH 7.4, 1 mM PMSF) containing 10% sucrose on ice, and disrupted using aDounce homogenizer. After centrifugation at 800×g, the supernatant was diluted with HME without sucrose and centrifuged at 17,000×g for 1 hour. This crude membrane pellet was resuspended in HME with sucrose, aliquoted, and snap-frozen by immersion in liquid nitrogen. The membranes were stored at −70° C. Protein concentration was determined spectroscopically by Bradford protein assay.
(§4) For the binding assay, [^33P]sphingosine 1-phosphate (obtained from American Radiolabeled Chemicals, Inc) was added to membranes in 200 μL in 96-well plates with assay concentrations of 2.5 pM [^33P]sphingosine 1-phosphate, 4 mg/mL BSA, 50 mM HEPES, pH 7.5, 100 mM NaCl, 5 mM MgCl2, and 5 μg of protein. Binding was performed for 60 minutes at room temperature with gentle mixing and terminated by collecting the membranes onto GF/B filter plates. After drying the filter plates for 10 minutes, 50 μL of Microscint 40 was added to each well, and filter-bound radionuclide was measured on a Packard Top Count. Nonspecific binding was defined as the amount of radioactivity remaining in the presence of excess of unlabeled S1P.

In another experiment the target is T2, S1P-3 receptor (Homo sapiens, UniProt Q99500).
T2 construct: expressed in transfected cells; host or cells: HEK 293 T cells (crude membranes)
The experiment is described as above. Conditions: 2.5 pM [33P]S1P, 60 minutes, room temperature. As for the experimental part: as §1, §2, §3, §4

For experiment [2], the target named is T1, S1P-1 receptor. Put plainly: 35S-GTPγS binding assay (EC50, agonism). It counts as biochemical. To be noted: 35S-GTPγS binding assay as described in WO 03/061567. The procedure:
The terms “agonist” or “S1P-1 receptor agonist” as used herein include the compounds described herein which bind to and/or agonize the S1P-1 receptor. The EC50 of a compound is determined using the ^35S-GTPγS binding assay, as described in WO 03/061567, the entire contents of which are incorporated herein by reference.
For orientation: Binding of GTPγS marks nucleotide exchange on a G protein.

SMILES strings stand for the structures.

T1 sequence (P21453 whole entry): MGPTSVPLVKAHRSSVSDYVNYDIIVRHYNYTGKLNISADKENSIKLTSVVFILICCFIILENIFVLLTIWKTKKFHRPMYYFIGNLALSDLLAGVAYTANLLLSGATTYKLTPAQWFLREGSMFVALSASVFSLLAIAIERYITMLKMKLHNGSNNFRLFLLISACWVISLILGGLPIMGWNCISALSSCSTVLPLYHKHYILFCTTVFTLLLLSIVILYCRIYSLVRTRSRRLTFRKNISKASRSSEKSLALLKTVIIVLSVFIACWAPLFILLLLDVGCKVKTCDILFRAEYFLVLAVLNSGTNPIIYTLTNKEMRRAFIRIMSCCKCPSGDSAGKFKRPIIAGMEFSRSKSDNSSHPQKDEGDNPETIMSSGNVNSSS
T2 sequence (Q99500 whole entry): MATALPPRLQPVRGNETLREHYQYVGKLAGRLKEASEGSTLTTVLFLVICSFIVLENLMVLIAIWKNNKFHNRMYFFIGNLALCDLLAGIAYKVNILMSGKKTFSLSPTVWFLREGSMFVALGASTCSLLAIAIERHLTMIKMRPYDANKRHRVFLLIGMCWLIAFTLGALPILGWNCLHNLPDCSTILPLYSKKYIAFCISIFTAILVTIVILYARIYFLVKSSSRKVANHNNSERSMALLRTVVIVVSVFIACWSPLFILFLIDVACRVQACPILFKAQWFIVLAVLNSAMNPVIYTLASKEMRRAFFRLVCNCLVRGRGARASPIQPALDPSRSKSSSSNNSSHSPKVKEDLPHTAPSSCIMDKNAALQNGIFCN

As a reminder, the IC50 is the midpoint of a concentration-inhibition curve. With `C[C@](N)(COP(=O)(O)O)c1nnc(-c2ccc(Sc3cccc(OCc4ccccc4)c3)c(C(F)(F)F)c2)s1`, the IC50 is 0.001 to 100 nM at S1P-1 receptor [1] and greater than 10000 nM at S1P-3 receptor.

In the case of `C[C@](N)(COP(=O)(O)O)c1nnc(-c2ccc(Sc3cccc(O)c3)cc2Cl)s1`, the IC50 was 100 to 1000 nM at S1P-1 receptor [1] and greater than 10000 nM at S1P-3 receptor.

As to `C[C@](N)(COP(=O)(O)O)c1ncc(-c2ccc(Sc3cccc(OCc4ccccc4)c3)cc2Cl)[nH]1`, on S1P-1 receptor [1], the IC50 fell in the range of 0.001 to 100 nM and the “IC50/IC50 (S1P-3/S1P-1)” value was “+++ (great receptor selectivity (>1,000 fold))”. At S1P-3 receptor, this molecule displayed a concentration for half-maximal inhibition (IC50) of 100 to 1000 nM.

For orientation: EC50 means the concentration giving half of the maximal effect. Low readings indicate higher potency in that assay, high ones lower potency in that assay. In the case of `C[C@](N)(COP(=O)(O)O)C(=O)Nc1ccc(Sc2cccc(OCc3ccccc3)c2)cc1Cl` [compound 7a], on S1P-1 receptor [2], the concentration for a half-maximal effect (EC50) was 6.9 nM.

For the molecule `C[C@](N)(COP(=O)(O)O)c1nnc(-c2ccc(Sc3cccc(OCc4ccccc4)c3)cc2Cl)s1`, at S1P-1 receptor [1], the half-inhibitory concentration (IC50) lay in the range of 0.001 to 100 nM and the “IC50/IC50 (S1P-3/S1P-1)” value is reported as “++ (good receptor selectivity (>100-1,000 fold))”. The IC50 at S1P-3 receptor lay within 100 to 1000 nM.

On to `C[C@](N)(COP(=O)(O)O)c1ncc(-c2ccc(Sc3cccc(OCc4ccccc4)c3)c(C(F)(F)F)c2)[nH]1`, for which, on S1P-1 receptor [1], the half-inhibitory concentration (IC50) was in the range of 0.001 to 100 nM and the “IC50/IC50 (S1P-3/S1P-1)” value is “+++ (great receptor selectivity (>1,000 fold))”. The molecule also registered an IC50 on S1P-3 receptor of 1000 to 10000 nM.

For the origin of these results see patent US20090318389A1, “AGONISTS OF THE SPHINGOSINE-1 PHOSPHATE RECEPTOR” (PRAECIS PHARMACEUTICALS INCORPORATED, priority 2006, published 2009).
